In brackets after ≈: the same amount, converted by molar mass.
Tests used:
[1] = system: Influenza virus A/90-15; test: Preventive assay: MDCK cells pre-treated 24 hours, then infected, influenza A; format: cell-based, Influenza virus type A (H3N2) strain Jifeng A/90-15; conditions: drug added 24 hours before infection
Method: (§1) Preventive assay: Cell culture plate pre-treated with different concentrations of sample solutions for 24 hours, washed out the drugs, then infected with viruses, incubated, washed, observed and calculated the inhibition % as above.

[2] = system: Influenza virus B/97-13; test: microbe, parasite or virus in culture; format: cell-based, Influenza virus type B strain Jifeng B/97-13
[3] = system: Influenza virus A/90-15; test: microbe, parasite or virus in culture; format: cell-based, Influenza virus type A (H3N2) strain Jifeng A/90-15
[4] = system: Influenza virus B/97-13; test: Preventive assay: MDCK cells pre-treated 24 hours, then infected, influenza B; format: cell-based, Influenza virus type B strain Jifeng B/97-13; conditions: drug added 24 hours before infection
Method: as §1

Question: What does the source list for `NC(=O)c1ncn([C@@H]2O[C@H](CO)[C@@H](O)[C@H]2O)n1` [Ribavirin, 1-β-D-ribafuranosyl-1,2,4-triazole-3-carboxamide]?
Answer: Activity on pretreatment for 24 hours (in words) [1]: effective; Inhibition of virus CPE (in words) [2]: effective; IC50 ([2]; unidentified influenza virus, MDCK, read-out: Influenza virus B/97-13 IC50): 60 ± 30 µg/mL (≈ 246 µM); Inhibition of virus CPE (in words) [3]: effective; IC50 ([3]; unidentified influenza virus, MDCK, read-out: Influenza virus A/90-15 IC50): 70 ± 40 µg/mL (≈ 287 µM); Activity on pretreatment for 24 hours (in words) [4]: effective
